Experimental data taken from ChEMBL document CHEMBL1201862, “PubChem BioAssay data set” (2004).
Activity calls are given as the source filed them.

Tests used:
Assay type in all cases: functional
Protein skinhead-1 = biological target: T1, Protein skinhead-1 (Caenorhabditis elegans, UniProt P34707)
T1 sequence (P34707 whole entry): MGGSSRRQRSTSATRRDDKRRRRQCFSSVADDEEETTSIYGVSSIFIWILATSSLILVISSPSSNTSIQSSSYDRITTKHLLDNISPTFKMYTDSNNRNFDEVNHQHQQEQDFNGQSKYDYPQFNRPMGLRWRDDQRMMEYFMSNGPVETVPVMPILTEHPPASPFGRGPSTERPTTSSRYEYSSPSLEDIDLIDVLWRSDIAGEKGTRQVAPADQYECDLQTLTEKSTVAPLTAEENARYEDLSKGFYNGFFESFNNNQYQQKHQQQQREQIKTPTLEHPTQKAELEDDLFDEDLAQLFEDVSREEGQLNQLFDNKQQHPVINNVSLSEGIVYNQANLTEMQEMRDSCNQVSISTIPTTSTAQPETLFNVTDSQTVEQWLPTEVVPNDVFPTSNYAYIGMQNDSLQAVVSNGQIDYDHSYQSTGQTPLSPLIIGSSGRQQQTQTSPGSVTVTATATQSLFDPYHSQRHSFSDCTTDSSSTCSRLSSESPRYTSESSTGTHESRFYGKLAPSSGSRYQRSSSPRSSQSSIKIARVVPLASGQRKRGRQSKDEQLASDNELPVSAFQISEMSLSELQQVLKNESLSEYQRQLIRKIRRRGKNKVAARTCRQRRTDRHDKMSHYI

[1] = growth suppression of PTEN-null colon cells, dose response, cell-based, HCT116 PTEN knockout (AID 1047);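 note: HCT116 colon tumor cells with PTEN knocked out; cells exposed to compound for 60 hours before readout; potency for loss of cell viability measured by luminescence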
[2] = growth suppression of beta-catenin-knockout colon cells, dose response, cell-based, HCT116, human colon tumor (AID 1045);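 note: HCT116 colon tumor cells with beta catenin knocked out; cells exposed to compound for 60 hours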
Caspase-3 = biological target: T2, Caspase-3 (Homo sapiens, UniProt P42574);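 note: Dose-response selectivity test against caspase-3 for candidate inhibitors of sentrin-specific proteases (SENPs)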
T2 sequence (P42574 whole entry): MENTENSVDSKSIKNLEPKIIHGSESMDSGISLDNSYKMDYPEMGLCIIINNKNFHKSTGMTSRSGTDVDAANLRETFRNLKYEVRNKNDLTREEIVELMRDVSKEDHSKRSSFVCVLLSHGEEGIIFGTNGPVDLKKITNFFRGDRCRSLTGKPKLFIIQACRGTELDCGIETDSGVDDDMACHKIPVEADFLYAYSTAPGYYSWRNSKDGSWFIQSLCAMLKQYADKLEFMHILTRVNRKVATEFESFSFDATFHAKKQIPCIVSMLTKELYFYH

[3] = biological target: T3, Sentrin-specific protease 7 (Homo sapiens, UniProt Q9BQF6);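 note: Luminescence-based dose-response confirmation of ultra-high-throughput screening hits, measuring inhibition of SENP7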
T3 sequence (Q9BQF6 whole entry): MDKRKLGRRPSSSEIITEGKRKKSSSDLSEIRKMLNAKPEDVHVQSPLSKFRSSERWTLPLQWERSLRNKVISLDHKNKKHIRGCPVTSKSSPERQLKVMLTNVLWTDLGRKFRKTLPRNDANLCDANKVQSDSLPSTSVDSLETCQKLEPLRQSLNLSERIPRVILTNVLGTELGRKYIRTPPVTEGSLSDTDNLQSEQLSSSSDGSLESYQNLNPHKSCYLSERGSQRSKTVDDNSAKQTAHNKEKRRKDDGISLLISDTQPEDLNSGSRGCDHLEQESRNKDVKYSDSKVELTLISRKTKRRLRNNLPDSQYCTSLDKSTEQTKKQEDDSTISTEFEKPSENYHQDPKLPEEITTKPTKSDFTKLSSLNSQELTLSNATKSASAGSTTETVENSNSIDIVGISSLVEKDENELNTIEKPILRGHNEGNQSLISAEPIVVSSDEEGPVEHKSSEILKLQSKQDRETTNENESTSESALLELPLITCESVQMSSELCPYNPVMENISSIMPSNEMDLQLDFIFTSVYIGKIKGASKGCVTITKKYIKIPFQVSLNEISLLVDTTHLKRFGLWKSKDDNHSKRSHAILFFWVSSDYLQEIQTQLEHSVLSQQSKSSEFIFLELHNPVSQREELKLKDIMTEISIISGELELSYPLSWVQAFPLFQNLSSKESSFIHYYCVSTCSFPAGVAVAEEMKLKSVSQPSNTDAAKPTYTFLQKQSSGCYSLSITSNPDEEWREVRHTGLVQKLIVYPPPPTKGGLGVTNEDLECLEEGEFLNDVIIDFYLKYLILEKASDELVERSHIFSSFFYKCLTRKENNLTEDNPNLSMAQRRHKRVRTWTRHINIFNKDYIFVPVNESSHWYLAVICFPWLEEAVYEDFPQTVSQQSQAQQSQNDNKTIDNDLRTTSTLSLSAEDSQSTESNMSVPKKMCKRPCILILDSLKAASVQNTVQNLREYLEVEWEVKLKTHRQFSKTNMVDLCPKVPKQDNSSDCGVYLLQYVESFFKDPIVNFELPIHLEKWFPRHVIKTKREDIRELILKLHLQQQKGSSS

[4] = biological target: T4, Sentrin-specific protease 6 (Homo sapiens, UniProt Q9GZR1);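 note: Luminescence-based dose-response confirmatory assay of SENP6 inhibition, following up an ultra-high-throughput screen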
T4 sequence (Q9GZR1 whole entry): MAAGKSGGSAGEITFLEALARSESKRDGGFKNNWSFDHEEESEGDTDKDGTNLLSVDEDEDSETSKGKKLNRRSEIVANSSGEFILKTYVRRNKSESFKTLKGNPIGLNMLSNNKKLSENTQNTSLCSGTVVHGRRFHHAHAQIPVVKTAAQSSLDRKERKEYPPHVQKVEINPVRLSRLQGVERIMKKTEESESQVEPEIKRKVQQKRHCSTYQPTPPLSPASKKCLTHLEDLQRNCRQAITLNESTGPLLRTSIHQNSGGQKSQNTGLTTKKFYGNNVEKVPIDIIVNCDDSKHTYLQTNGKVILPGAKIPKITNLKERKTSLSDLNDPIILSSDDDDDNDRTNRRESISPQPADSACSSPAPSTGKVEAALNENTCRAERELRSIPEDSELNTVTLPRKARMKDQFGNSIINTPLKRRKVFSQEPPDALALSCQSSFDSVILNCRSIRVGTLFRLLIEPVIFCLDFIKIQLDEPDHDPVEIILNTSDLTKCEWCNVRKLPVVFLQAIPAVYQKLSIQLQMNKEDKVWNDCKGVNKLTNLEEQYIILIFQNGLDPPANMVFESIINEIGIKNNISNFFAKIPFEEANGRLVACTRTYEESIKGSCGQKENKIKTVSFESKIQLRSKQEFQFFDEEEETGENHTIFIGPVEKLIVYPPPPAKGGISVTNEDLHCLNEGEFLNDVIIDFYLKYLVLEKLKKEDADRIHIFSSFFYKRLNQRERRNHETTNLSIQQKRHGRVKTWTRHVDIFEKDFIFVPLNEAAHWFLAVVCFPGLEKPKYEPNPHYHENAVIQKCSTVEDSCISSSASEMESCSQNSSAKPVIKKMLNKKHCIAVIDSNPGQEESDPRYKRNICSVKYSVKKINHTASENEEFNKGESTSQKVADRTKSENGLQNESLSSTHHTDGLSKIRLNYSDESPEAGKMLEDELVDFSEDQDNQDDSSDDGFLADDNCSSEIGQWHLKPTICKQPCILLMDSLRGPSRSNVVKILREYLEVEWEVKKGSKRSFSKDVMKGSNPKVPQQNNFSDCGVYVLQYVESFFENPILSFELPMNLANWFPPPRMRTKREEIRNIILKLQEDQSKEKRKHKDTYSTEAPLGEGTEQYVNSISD

[5] = biological target: T5, Sentrin-specific protease 8 (Homo sapiens, UniProt Q96LD8);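 note: luminescence read-out of SENP8 inhibition, dose-response confirmation following an ultra-high-throughput screen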
T5 sequence (Q96LD8 whole entry): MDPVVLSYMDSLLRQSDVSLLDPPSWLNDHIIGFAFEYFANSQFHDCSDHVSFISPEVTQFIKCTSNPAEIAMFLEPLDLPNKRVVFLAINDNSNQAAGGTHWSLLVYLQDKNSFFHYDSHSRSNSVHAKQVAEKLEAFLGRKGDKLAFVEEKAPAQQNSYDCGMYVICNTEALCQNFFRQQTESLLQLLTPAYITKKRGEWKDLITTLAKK

[6] = biological target: T6, Replicative DNA helicase DnaB (Mycobacterium tuberculosis, UniProt P9WMR3); experiment: DnaB intein splicing inhibitors, dose response, biochemical, cell-free fluorescence (AID 449749)
T6 sequence (P9WMR3 whole entry): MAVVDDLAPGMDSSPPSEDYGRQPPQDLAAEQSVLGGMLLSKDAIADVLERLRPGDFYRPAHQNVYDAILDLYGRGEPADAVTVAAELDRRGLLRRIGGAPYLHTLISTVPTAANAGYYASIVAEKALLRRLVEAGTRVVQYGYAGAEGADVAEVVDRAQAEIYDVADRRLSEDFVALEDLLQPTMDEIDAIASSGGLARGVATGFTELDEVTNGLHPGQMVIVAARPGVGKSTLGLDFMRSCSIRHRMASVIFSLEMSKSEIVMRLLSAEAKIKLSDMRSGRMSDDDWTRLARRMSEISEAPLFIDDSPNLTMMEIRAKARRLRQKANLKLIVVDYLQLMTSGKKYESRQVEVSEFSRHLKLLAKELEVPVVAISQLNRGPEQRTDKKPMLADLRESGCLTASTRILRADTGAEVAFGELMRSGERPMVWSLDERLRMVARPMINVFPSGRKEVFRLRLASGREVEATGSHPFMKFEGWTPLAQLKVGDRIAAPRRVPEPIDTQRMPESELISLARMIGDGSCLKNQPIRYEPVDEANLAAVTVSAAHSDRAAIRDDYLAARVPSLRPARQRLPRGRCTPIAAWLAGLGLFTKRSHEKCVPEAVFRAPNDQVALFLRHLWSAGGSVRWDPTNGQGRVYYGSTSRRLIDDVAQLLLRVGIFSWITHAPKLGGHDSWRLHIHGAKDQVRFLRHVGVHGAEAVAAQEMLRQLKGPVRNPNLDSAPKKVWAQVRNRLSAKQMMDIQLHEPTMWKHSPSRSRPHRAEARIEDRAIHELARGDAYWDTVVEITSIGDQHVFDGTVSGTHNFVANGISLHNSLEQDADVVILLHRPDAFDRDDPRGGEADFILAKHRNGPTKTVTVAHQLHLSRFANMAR

Protein RecA = biological target: T7, Protein RecA (Mycobacterium tuberculosis, UniProt P9WHJ3); experiment: Fluorescence Cell-Free Homogeneous Dose Retest to Identify Inhibitors of RecA-Intein Splicing Activity. [Related pubchem assays (depositor defined):AID2097, AID2223, AID489010, AID492950]
T7 sequence (P9WHJ3 whole entry): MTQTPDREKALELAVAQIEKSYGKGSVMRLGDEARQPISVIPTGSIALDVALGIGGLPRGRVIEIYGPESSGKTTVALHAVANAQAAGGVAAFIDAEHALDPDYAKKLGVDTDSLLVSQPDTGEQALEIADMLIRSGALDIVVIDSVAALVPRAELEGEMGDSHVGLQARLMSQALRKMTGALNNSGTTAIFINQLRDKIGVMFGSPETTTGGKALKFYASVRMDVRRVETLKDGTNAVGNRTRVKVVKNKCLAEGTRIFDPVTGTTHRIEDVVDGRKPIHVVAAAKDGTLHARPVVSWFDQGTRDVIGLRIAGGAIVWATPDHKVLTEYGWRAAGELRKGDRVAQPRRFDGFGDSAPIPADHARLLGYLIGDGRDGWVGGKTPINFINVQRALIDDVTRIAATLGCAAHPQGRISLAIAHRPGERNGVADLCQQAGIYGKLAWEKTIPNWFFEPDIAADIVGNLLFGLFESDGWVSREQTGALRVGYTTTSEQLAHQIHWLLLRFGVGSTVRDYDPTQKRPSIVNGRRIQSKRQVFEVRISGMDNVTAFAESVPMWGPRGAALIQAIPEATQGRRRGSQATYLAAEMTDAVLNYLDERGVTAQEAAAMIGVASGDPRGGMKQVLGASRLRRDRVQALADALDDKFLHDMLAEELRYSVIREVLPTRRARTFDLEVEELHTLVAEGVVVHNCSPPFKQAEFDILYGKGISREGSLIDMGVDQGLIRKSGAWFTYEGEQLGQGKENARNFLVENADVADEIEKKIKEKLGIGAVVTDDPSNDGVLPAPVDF

N=c1oc2ccccc2cc1-c1nc(-c2ccccc2)cs1
IC50 (Protein skinhead-1): > 100 µM (inactive)

CC(C)=CC(=O)Nc1nnc(-c2ccc(F)cc2)s1
EC50 [1]: 18.2 µM (active)
EC50 [2]: 13.8 µM (active)

Clc1ccsc1-c1csc(-c2cccnc2)n1
IC50 (Caspase-3): 19.4 µM (active)
IC50 [3]: 6.3 µM (active)
IC50 [4]: 11.3 µM (active)
IC50 [5]: 22.6 µM (active)
IC50 (Protein skinhead-1): > 100 µM (inactive)

COC(=O)c1ccc(-c2csc(NC(=O)c3ccc(S(=O)(=O)N4CCc5ccccc5C4)cc3)n2)cc1
EC50 [1]: 10.3 µM (active)
EC50 [2]: 10.2 µM (active)

O=C(CCN1CCN(S(=O)(=O)c2ccc(Cl)cc2)CC1)Nc1ccc(F)cc1
IC50 (Protein skinhead-1): > 100 µM (inactive)

CCOc1ccc(-c2nc(-c3cccnc3)no2)cc1
IC50 (Protein skinhead-1): 22.6 µM (active)

COc1cc2c(cc1OC)CN(c1nc(CN3CCOCC3)nc3sc4c(c13)CCCC4)CC2
EC50 [1]: 4.64 µM (active)
EC50 [2]: 6.69 µM (active)

CCc1c(C)nc2cc(-c3ccccc3)nn2c1O
IC50 (Protein skinhead-1): > 100 µM (inactive)

COc1ccc(-c2cc(C(=O)n3cnc4ccccc43)c3ccccc3n2)cc1
AC50 [6]: > 380 µM (inactive)
EC50 (Protein RecA): 3.72 µM (active)
IC50 (Protein skinhead-1): > 100 µM (inactive)

Clc1ccc(-c2nc(-c3ccncc3)no2)c(Cl)c1
IC50 (Protein skinhead-1): 6.36 µM (active)

CCN(CC)c1ccc(C2NC(=O)c3ccccc3N2)cc1 (stereo unspecified)
IC50 (Protein skinhead-1): > 100 µM (inactive)

O=C(O)c1ccc2ccc3ccccc3c2c1
IC50 (Protein skinhead-1): > 100 µM (inactive)
